Assay results taken from US10908147B2, “Methods of identifying modulators of olfactory receptors” (priority 2013, dated 2021).
Entries after “also recorded” stand apart in the source; their conditions may differ. Read-outs that look alike come from different tables or passages of the source.

Experiments:
[1] = test system: immortalized human fungiform taste papillae (Ulduz) cells; assay: Odor response of immortalized human fungiform taste papillae (Ulduz) cells; type: cell-based
Protocol: (§1) Changes in intracellular calcium levels in response to stimuli were measured. Cultured human fungiform and mice taste papillae cells were seeded on 15 mm coverslips. Cells were loaded with […] Fura-2 AM (Molecular Probes Inc.) in 10 mg/mL Pluronic® F127 (Molecular Probes Inc.) in modified Ringer solution for 1 hour at 36° C. Individual odors, bitter mixture [phenylthiocarbamide (PTC, 2 mM) and Denatonium (2 mM), Salicin (5 mM)]; and Mix A [cAMP-producing odors in rat biochemical assays (Breer and Boekhoff, 1991, Chem. Senses, 16(1): 19-29, and Restrepo et al., 1993, J. Gen. Physiol., 102:907-924); both of which are incorporated herein by reference] (100 mM): hedione, geraniol, phenylethyl alcohol, citralva, citronellal, and eugenol,]; and Mix B [IP3-producing odors in rat biochemical assays (Breer and Boekhoff, 1991 and Restrepo et al 1993)] (100 mM): lyral, lilial, triethylamine, ethyl vanillin, isovaleric acid, and phenylethyl amine]) was diluted in Ringer, which was prepared with pH adjusted to 7.2 and osmolality adjusted to 300 mmol/kg. A coverslip was placed into a p4 chamber system with the delivery and waste pipes attached to the chamber. This allowed for a stable and constant flow of liquid in and out of the chamber. The cells were visualized with an inverted florescence microscope using an excitation wavelength of 380 nm. Stimulus selection and delivery, focusing, and image acquisition were done using PTI software. Following image acquisition, regions of interest (ROIs) on the cells along with a background control region were selected to be measured for fluorescence ratios and intensity values. Cultured taste papillae cells were first washed for 1-3 min with Ringer, and then stimuli delivery was initiated. Each stimulus was delivered for 30 sec-1 min followed by an approximately 2 min wash out period with Ringer. Ratio data for the cells were subsequently analyzed on Excel to determine which cells had responded with a significant change in intracellular calcium. After calcium imaging, coverslips were fixed with 4% PFA for 10 min and washed 3× with PBS.
In a similar manner, immortalized human fungiform taste papillae (Ulduz) cells, responded to receptor specific odors, heptaldehyde, acetophenone, methyl cinnamon, eugenol and lyral.

[2] = test system: cultured taste papillae cells obtained from mOR-M71-GFP ("M71") mice; assay: Calcium imaging of cultured taste papillae cells from mOR-M71-GFP mice; type: cell-based; conditions: fura-2 calcium imaging; odorants at optimal concentration 100 uM; mOR-M71-GFP mouse taste cell cultures
Protocol: (§2) Circumvallate and foliate papillae obtained from wild (m129), I7, M71 and Eugenol transgenic mice were isolated according to previously published procedure (Ozdener et al., 2006, cited above). Briefly, mouse taste papillae were removed by injecting the mixture of enzyme (pronase, 1 mg/ml Sigma and elastase 1 mg/ml Sigma) and immediately placed into an isolation solution followed by enzymatic digestion. Digested taste papillae tissue were then gently minced with a surgical razor and seeded on collagen type-1 coated coverslips and incubated at 36° C. in a humidified environment containing 5% CO2.
(§3) Changes in intracellular calcium levels in response to stimuli were measured. Cultured human fungiform and mice taste papillae cells were seeded on 15 mm coverslips. Cells were loaded with […] Fura-2 AM (Molecular Probes Inc.) in 10 mg/mL Pluronic® F127 (Molecular Probes Inc.) in modified Ringer solution for 1 hour at 36° C. […] Following image acquisition, regions of interest (ROIs) on the cells along with a background control region were selected to be measured for fluorescence ratios and intensity values. […] Ratio data for the cells were subsequently analyzed on Excel to determine which cells had responded with a significant change in intracellular calcium. […]

[3] = test system: cultured taste papillae cells obtained from M129 mice; assay: Calcium imaging of cultured wild mouse (m129) taste papillae cells; type: cell-based; conditions: fura-2 calcium imaging; odorants at optimal concentration 100 uM; wild (m129) mouse taste cell cultures
Protocol: as §2
as §1, with “This allowed for a stable and constant flow of liquid in and out of the chamber. The cells were visualized with an inverted florescence microscope using an excitation wavelength of 380 nm. Stimulus selection and delivery, focusing, and image acquisition were done using PTI software.” left out, “Cultured taste papillae cells were first washed for 1-3 min with Ringer, and then stimuli delivery was initiated. Each stimulus was delivered for 30 sec-1 min followed by an approximately 2 min wash out period with Ringer.” left out, “After calcium imaging, coverslips were fixed with 4% PFA for 10 min and washed 3× with PBS.” left out

[4] = target: T1, olfactory receptor OR240 (also OR7D4) (Homo sapiens, UniProt Q8NG98); assay: Calcium imaging of HBO cells transiently transfected with OR7D4; type: cell-based; conditions: HBO cells transfected with OR7D4/OR240 plus chaperone DNA (RTP1S and M3); 30 or 100 micromolar
T1 construct: expressed in transfected cells; host or cells: cultured human taste papillae (HBO) cells, Lipofectamine 2000, transient
T1 sequence (Q8NG98 1-312): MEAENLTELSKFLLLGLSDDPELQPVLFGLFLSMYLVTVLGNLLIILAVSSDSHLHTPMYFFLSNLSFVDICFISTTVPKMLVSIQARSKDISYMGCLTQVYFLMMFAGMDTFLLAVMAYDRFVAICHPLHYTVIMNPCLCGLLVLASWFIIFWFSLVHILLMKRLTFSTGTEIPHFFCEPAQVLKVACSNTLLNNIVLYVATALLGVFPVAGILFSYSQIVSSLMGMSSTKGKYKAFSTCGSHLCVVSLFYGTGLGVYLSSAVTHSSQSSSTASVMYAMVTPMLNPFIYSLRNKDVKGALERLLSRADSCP

[5] = test system: cultured fungiform taste papillae (HBO) cells obtained from human tongue; assay: Calcium imaging of cultured human fungiform taste papillae (HBO) cells; type: cell-based; conditions: fura-2 calcium imaging, odorants at optimal concentration 100 uM
Protocol: The human fungiform papillae cells were cultured according to published protocols (Ozdener et al., Chem Senses. 2006 March; 31(3): 279-90; Ozdener et al., In Vitro Cellular & Developmental Biology—Animal. September 2011, 47(8): 513-14; each of which is incorporated herein by reference). Briefly, human fungiform taste papillae were removed and immediately placed into an isolation solution [26 mM NaHCO3, 2.5 mM NaH2PO4, 20 mM glucose, 65 mM NaCl, 20 mM KCl, and 1 mM ethylenediaminetetraacetic acid (EDTA)] followed by enzymatic digestion with pronase E and elastase. Digested fungiform papillae were then gently minced with a surgical razor and seeded on collagen type-1 coated coverslips and incubated at 36° C. in a humidified environment containing 5% CO2. The human fungiform taste papillae were cultured in Iscove's Modified Dulbecco's medium containing 10% fetal bovine serum, 1:5 ratio of MCDB 153, and a triple cocktail of antibiotics (100 U/mL/100 μg/mL, penicillin/streptomycin, and 0.5 μg/mL fungizone). Human fungiform taste papillae cells have been maintained in culture for a period of more than 1 year without loss of viability and with retention of the molecular and biochemical properties of acutely isolated taste cells.
as §1

[6] = test system: cultured taste papillae cells obtained from mOR-EG-GFP ("mEUG") mice; assay: Calcium imaging of cultured taste papillae cells from mOR-EG-GFP mice; type: cell-based; conditions: fura-2 calcium imaging; odorants at optimal concentration 100 uM; mOR-EG-GFP mouse taste cell cultures
Protocol: as §2, §3

[7] = test system: olfactory receptor ORS6 (also Olfr544); assay: Calcium imaging of HBO cells transiently transfected with ORS6; type: cell-based, mouse; conditions: HBO cells transfected with ORS6 plus chaperone DNA (RTP1S and M3); 30 or 100 micromolar

Row | Compound | response to receptor specific odor [1] | response to stimulus (change in intracellular calcium) [3] | response to stimulus (change in intracellular calcium [Ca2+]i) [5] | also measured
1 | COC(=O)/C=C/c1ccccc1 [methyl cinnamon] | respond | – | – | –
2 | O=Cc1ccccc1 [benzaldehyde] | – | responded; also recorded: sensitive | – | response to stimulus (change in intracellular calcium) [2]: respond
3 | C[C@@]12CCC[C@H]1[C@@H]1CC[C@H]3CC(=O)CC[C@]3(C)[C@H]1CC2 [Androstanone] | – | – | – | calcium response to receptor specific odor [4]: response occurred
4 | CC(=O)c1ccccc1 [acetophenone] | respond | responded; also recorded: sensitive | sensitive | response to stimulus (change in intracellular calcium) [2]: exhibited a response; also recorded: respond; also recorded: responsive
5 | C=CCc1ccc(O)c(OC)c1 [eugenol] | respond | sensitive | sensitive | response to stimulus (change in intracellular calcium) [6]: respond; also recorded: responsive
6 | CC(C)(O)CCCC1=CCC(C=O)CC1 (stereo not shown) [lyral] | respond | – | sensitive | –
7 | O=c1ccc2ccccc2o1 [coumarin] | – | – | sensitive | –
8 | CCCCCC(=O)O [hexanoic acid] | – | – | sensitive | –
9 | O=C(O)CCCCCCCC(=O)O [Nonanedionic acid] | – | – | – | calcium response to receptor specific odor [7]: response occurred
10 | CCCCCCC=O [heptanal] | – | – | sensitive | response to receptor specific odor ([1]; listed as heptaldehyde): respond
